# Square brackets hold non-standard residues; d marks the D form. Peptide text beside a SMILES is read from it. Dab = NCC[C@H](N)C(=O)O
# System: Acinetobacter baumannii strains resistant to Polymyxin B and Colistin
# Settings: strains resistant to Polymyxin B and Colistin, 24 h
# Excerpt: The coupling procedure used 5 equivalents of Fmoc-D-amino acid or Fmoc-L-amino acid and HCTU (O-(1H-6-chlorobenzotriazole-1-yl)-1,1,3,3-tetramethyluronium hexafluorophosphate) and 6-Cl-HOBt (1-hydroxy-6-chloro-benztriazole) at 4.5 equivalents in DMF (Fisher Scientific, Denver, Colo.) and N-diisopropylethylamine (DIPEA) 10 equivalents (Oakwood Products, Inc., Estill, S.C.) in N-methyl-2-pyrrolidinone (NMP) (Fisher Scientific, Denver, Colo.) with the first and second couplings at room temperature for 30 min each. The deprotection procedure (removal of Fmoc protecting group) was carried out by treatment of the resin with 0.1 M HOBt (1-hydroxybenzotriazole) in DMF with 20% piperidine for 30 min. […] The resin was removed by filtration and peptide was precipitated with ice-cooled ethyl ether on ice for 15 min. Ether was decanted, the peptide was washed twice with ether and redissolved in acetonitrile/water (1:1, with 0.2% TFA) and the solution lyophilized to obtain the crude peptide. • Analytical and Preparative Purification by Reversed-Phase Chromatography: Analytical RP-HPLC: Column, Luna C18 (2), 250×4.6 mm I.D., 5 μm particle size, 100 Å pore size from Phenomenex (Torrance, Calif.). Run conditions: linear AB gradient (1% acetonitrile/min, starting from 2% acetonitrile) at a flow-rate of 1 ml/min, where eluent A is 0.2% aq. TFA and eluent B is 0.18% TFA in acetonitrile; temperature, 30° C. Preparative RP-HPLC: Peptides were dissolved in 0.2% aq. TFA containing 2% acetonitrile to a final concentration of 10 mg/ml. Following filtration through a 0.45 μm Millipore filter and subsequently through a 0.22 μm filter, the peptide solutions were loaded onto the column via multiple 20-ml injections into a 20-ml injection loop at a flow-rate of 10 ml/min. Column, Luna C18 (2), 250×30 mm I.D., 5 um particle size, 100 Å pore size from Phenomenex. Run conditions: 2% acetonitrile/min gradient up to an acetonitrile concentration 10% below that required to elute the peptide during analytical RP-HPLC, then shallow gradient elution (0.05% or 0.1% acetonitrile/min depending on the complexity of impurities near the product of interest on the analytical run of the crude peptide) at a flow-rate of 10 ml/min (same eluents as shown above for analytical RP-HPLC); at room temperature. • Temperature Profiling of Peptides on Reversed-phase HPLC to Measure Dimerization and Oligomerization: Purified peptides were analyzed on an Agilent 1200 series liquid chromatograph for temperature profiling using a Zorbax 300 SB-C8 column (150 mm×2.1 mm I.D.; 5 μm particle size, 300 Å pore size) from Agilent Technologies. […] Temperature profiling was carried out on peptide mixtures run at each temperature in 2° C. increments from 5° C. to 41° C. and 10° C. increments from 5° C. to 75° C. Twenty minutes was allowed between runs for temperature equilibration. • Characterization of Helical Structure: The mean residue molar ellipticities of peptides were determined by circular dichroism (CD) spectroscopy, using a Jasco J-815 spectropolarimeter (Jasco Inc. Easton, Md., USA) at 5° C. under KP buffer (50 mM NaH2PO4/Na2HPO4/100 mM KCl, pH 7.0) as well as in the presence of an α-helix inducing solvent, 2,2,2-trifluoroethanol, TFE, (50 mM NaH2PO4/Na2HPO4/100 mM KCl, pH 7.0 buffer/50% TFE). A 10-fold dilution of an approximately 500 μM stock solution of the peptide analogs was loaded into a 0.1 cm quartz cell and its ellipticity scanned from 195 to 250 nm.
SMILES,MIC MB9941,MIC MB9949,MIC MB9951,MIC MB9952,MIC MB9953,MIC MB9955,MIC MB9963
"CC(=O)N[C@H](CCCCN)C(=O)N[C@H](CC(C)C)C(=O)N[C@H](CCCN)C(=O)N[C@H](CO)C(=O)N[C@H](CC(C)C)C(=O)N[C@H](CC(C)C)C(=O)N[C@H](CCCN)C(=O)N[C@@H](C(=O)N[C@H](CC(C)C)C(=O)N[C@H](CO)C(=O)N[C@H](CCCN)C(=O)N[C@H](C)C(=O)N[C@H](CCCCN)C(=O)N[C@H](C)C(=O)N[C@H](C)C(=O)N[C@H](CCCCN)C(=O)N[C@H](CC(C)C)C(=O)N[C@H](CCCN)C(=O)N[C@@H](C(=O)N[C@H](CC(C)C)C(=O)N[C@H](CC(C)C)C(=O)N[C@H](CCCN)C(=O)N[C@H](C)C(=O)N[C@H](CC(C)C)C(=O)N[C@H](CO)C(=O)N[C@H](CCCN)C(N)=O)[C@H](C)O)[C@H](C)O [D85(Lys^1-6Orn-1), Ac-KL(Orn)SLL(Orn)TLS(Orn)AKAAKL(Orn)TLL(Orn)ALS(Orn)-amide]",0.7 µM,0.7 µM,0.7 µM,0.4 µM,0.4 µM,0.4 µM,0.4 µM
"CC(=O)N[C@H](CCCCN)C(=O)N[C@H](CC(C)C)C(=O)N[C@H](CCCNC(=N)N)C(=O)N[C@H](CO)C(=O)N[C@H](CC(C)C)C(=O)N[C@H](CC(C)C)C(=O)N[C@H](CCCNC(=N)N)C(=O)N[C@@H](C(=O)N[C@H](CC(C)C)C(=O)N[C@H](CO)C(=O)N[C@H](CCCNC(=N)N)C(=O)N[C@H](C)C(=O)N[C@H](CCCCN)C(=O)N[C@H](C)C(=O)N[C@H](C)C(=O)N[C@H](CCCCN)C(=O)N[C@H](CC(C)C)C(=O)N[C@H](CCCNC(=N)N)C(=O)N[C@@H](C(=O)N[C@H](CC(C)C)C(=O)N[C@H](CC(C)C)C(=O)N[C@H](CCCNC(=N)N)C(=O)N[C@H](C)C(=O)N[C@H](CC(C)C)C(=O)N[C@H](CO)C(=O)N[C@H](CCCNC(=N)N)C(N)=O)[C@H](C)O)[C@H](C)O [D87(Lys^1-6Arg-1), Ac-KL(Arg)SLL(Arg)TLS(Arg)AKAAKL(Arg)TLL(Arg)ALS(Arg)-amide]",1.3 µM,1.3 µM,0.7 µM,0.7 µM,0.7 µM,0.7 µM,0.7 µM
"CC(=O)N[C@H](CCCCN)C(=O)N[C@H](CC(C)C)C(=O)N[C@H](CCCCN)C(=O)N[C@H](CO)C(=O)N[C@H](CC(C)C)C(=O)N[C@H](CC(C)C)C(=O)N[C@H](CCCCN)C(=O)N[C@@H](C(=O)N[C@H](CC(C)C)C(=O)N[C@H](CO)C(=O)N[C@H](C)C(=O)N[C@H](C)C(=O)N[C@H](CCCCN)C(=O)N[C@H](CCCCN)C(=O)N[C@H](CCCCN)C(=O)N[C@H](CCCCN)C(=O)N[C@H](CC(C)C)C(=O)N[C@H](C)C(=O)N[C@@H](C(=O)N[C@H](CC(C)C)C(=O)N[C@H](CC(C)C)C(=O)N[C@H](CCCCN)C(=O)N[C@H](C)C(=O)N[C@H](CC(C)C)C(=O)N[C@H](CO)C(=O)N[C@H](CCCCN)C(N)=O)[C@H](C)O)[C@H](C)O [D88(Lys^1-6 Lys-2), Ac-KL(Lys)SLL(Lys)TLSAAK(Lys)(Lys)KLATLL(Lys)ALS(Lys)-amide] (Ac-[dK][dL][dK][dS][dL][dL][dK][dT][dL][dS][dA][dA][dK][dK][dK][dK][dL][dA][dT][dL][dL][dK][dA][dL][dS][dK]-NH2)",0.7 µM,0.7 µM,0.3 µM,0.3 µM,0.3 µM,0.3 µM,0.4 µM

# Next, values leading:
MIC MB9941,MIC MB9949,MIC MB9951,MIC MB9952,MIC MB9953,MIC MB9955,MIC MB9963,SMILES
0.7 µM,0.7 µM,0.7 µM,0.7 µM,0.7 µM,0.7 µM,0.7 µM,"CC(=O)N[C@H](CCCCN)C(=O)N[C@H](CC(C)C)C(=O)N[C@@H](CCN)C(=O)N[C@H](CO)C(=O)N[C@H](CC(C)C)C(=O)N[C@H](CC(C)C)C(=O)N[C@@H](CCN)C(=O)N[C@@H](C(=O)N[C@H](CC(C)C)C(=O)N[C@H](CO)C(=O)N[C@H](C)C(=O)N[C@H](C)C(=O)N[C@H](CCCCN)C(=O)N[C@@H](CCN)C(=O)N[C@@H](CCN)C(=O)N[C@H](CCCCN)C(=O)N[C@H](CC(C)C)C(=O)N[C@H](C)C(=O)N[C@@H](C(=O)N[C@H](CC(C)C)C(=O)N[C@H](CC(C)C)C(=O)N[C@@H](CCN)C(=O)N[C@H](C)C(=O)N[C@H](CC(C)C)C(=O)N[C@H](CO)C(=O)N[C@@H](CCN)C(N)=O)[C@H](C)O)[C@H](C)O [D89(Lys^1-6 Dab-2), Ac-KL(L-Dab)SLL(L-Dab)TLSAAK(L-Dab)(L-Dab)KLATLL(L-Dab)ALS(L-Dab)-amide] (Ac-[dK][dL][Dab][dS][dL][dL][Dab][dT][dL][dS][dA][dA][dK][Dab][Dab][dK][dL][dA][dT][dL][dL][Dab][dA][dL][dS][Dab]-NH2)"
0.7 µM,0.7 µM,0.7 µM,0.7 µM,0.7 µM,0.7 µM,0.7 µM,"CC(=O)N[C@H](CCCCN)C(=O)N[C@H](CC(C)C)C(=O)N[C@H](CCCCN)C(=O)N[C@H](CO)C(=O)N[C@H](CC(C)C)C(=O)N[C@H](CC(C)C)C(=O)N[C@H](CCCCN)C(=O)N[C@@H](C(=O)N[C@H](CC(C)C)C(=O)N[C@H](CO)C(=O)N[C@H](C)C(=O)N[C@H](C)C(=O)N[C@H](CCCCN)C(=O)N[C@H](CCCCN)C(=O)N[C@H](CCCCN)C(=O)N[C@H](CCCCN)C(=O)N[C@H](CC(C)C)C(=O)N[C@H](C)C(=O)N[C@@H](C(=O)N[C@H](CC(C)C)C(=O)N[C@H](CC(C)C)C(=O)N[C@H](CCCCN)C(=O)N[C@H](C)C(=O)N[C@H](CC(C)C)C(=O)N[C@H](CO)C(=O)N[C@H](CO)C(N)=O)[C@H](C)O)[C@H](C)O [D103(Lys^1Ser^26-5 Lys-2), Ac-KL(Lys)SLL(Lys)TLSAAK(Lys)(Lys)KLATLL(Lys)ALS(Ser)-amide] (Ac-[dK][dL][dK][dS][dL][dL][dK][dT][dL][dS][dA][dA][dK][dK][dK][dK][dL][dA][dT][dL][dL][dK][dA][dL][dS][dS]-NH2)"
0.7 µM,0.7 µM,0.7 µM,0.7 µM,1.5 µM,0.7 µM,0.7 µM,"CC(=O)N[C@H](CCCCN)C(=O)N[C@H](CC(C)C)C(=O)N[C@@H](CCN)C(=O)N[C@H](CO)C(=O)N[C@H](CC(C)C)C(=O)N[C@H](CC(C)C)C(=O)N[C@@H](CCN)C(=O)N[C@@H](C(=O)N[C@H](CC(C)C)C(=O)N[C@H](CO)C(=O)N[C@H](C)C(=O)N[C@H](C)C(=O)N[C@H](CCCCN)C(=O)N[C@@H](CCN)C(=O)N[C@@H](CCN)C(=O)N[C@H](CCCCN)C(=O)N[C@H](CC(C)C)C(=O)N[C@H](C)C(=O)N[C@@H](C(=O)N[C@H](CC(C)C)C(=O)N[C@H](CC(C)C)C(=O)N[C@@H](CCN)C(=O)N[C@H](C)C(=O)N[C@H](CC(C)C)C(=O)N[C@H](CO)C(=O)N[C@H](CO)C(N)=O)[C@H](C)O)[C@H](C)O [D104(Lys^1Ser^26-5 Dab-2), Ac-KL(L-Dab)SLL(L-Dab)TLSAAK(L-Dab)(L-Dab)KLATLL(L-Dab)ALS(Ser)-amide] (Ac-[dK][dL][Dab][dS][dL][dL][Dab][dT][dL][dS][dA][dA][dK][Dab][Dab][dK][dL][dA][dT][dL][dL][Dab][dA][dL][dS][dS]-NH2)"

# From patent US20220105150A1, “AMPHIPATHIC ALPHA-HELICAL ANTIMICROBIAL PEPTIDES TREAT INFECTIONS BY GRAM-NEGATIVE PATHOGENS” (priority 2019, published 2022)
